Experimental data taken from patent US8952024B2, “Herbicidal pyrimidone derivatives” (E I du Pont de Nemours and Company, priority 2009, dated 2015).

Key:
Format in all cases: in vivo
[1] = system: morningglory (Ipomoea coccinea); test: Test B pre-/postemergence plant response; settings: for Plant response rating, Morningglory: Postemergence
In short: (§1)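 Greenhouse herbicide screen. Pre- and postemergence (1- to 4-leaf) spray of compound in solvent/surfactant mixture; loam–sand soil for pre, peat/vermiculite medium for post. Visual control rating 0–100 at 13 to 15 days after treatment.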

[2] = system: large crabgrass (Digitaria sanguinalis); test: Test B pre-/postemergence plant response; settings: for Plant response rating, Crabgrass, Large: Postemergence
In short: as §1

[3] = system: cocklebur (Xanthium strumarium); test: Test B pre-/postemergence plant response; settings: for Plant response rating, Cocklebur: Postemergence
In short: as §1

[4] = system: green foxtail (Setaria viridis); test: Test B pre-/postemergence plant response; settings: for Plant response rating, Foxtail, Green: Postemergence
In short: as §1

wild oat (Avena fatua) = test: Test B pre-/postemergence plant response; settings: for Plant response rating, Oat, Wild: Postemergence
In short: as §1

[5] = system: bermudagrass (Cynodon dactylon); test: Test B pre-/postemergence plant response; settings: for Plant response rating, Bermudagrass: Postemergence
In short: as §1

[6] = system: yellow nutsedge (Cyperus esculentus); test: Test B pre-/postemergence plant response; settings: for Plant response rating, Nutsedge, Yellow: Postemergence
In short: as §1

[7] = system: goosegrass (Eleusine indica); test: Test B pre-/postemergence plant response; settings: for Plant response rating, Goosegrass: Postemergence
In short: as §1

[8] = system: lambsquarters (Chenopodium album); test: Test B pre-/postemergence plant response; settings: for Plant response rating, Lambsquarters: Postemergence
In short: as §1

[9] = system: wheat (Triticum aestivum); test: Test B pre-/postemergence plant response; settings: for Plant response rating, Wheat: Postemergence
In short: as §1

[10] = system: umbrella sedge (Cyperus difformis); test: Test B flooded paddy test; settings: for Plant response rating, Sedge, Umbrella: Flood (flooded paddy test), 13 to 15 days
In short: (§2)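 Ratings are visual, 0–100 (100 = complete control), taken versus untreated controls 13 to 15 days after treatment in the greenhouse. Compound went straight into paddy water held 3 cm above soil, applied to 2-leaf-stage plants of four species.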

[11] = system: barnyardgrass (Echinochloa crus-galli); test: Test B flooded paddy test; settings: for Plant response rating, Barnyardgrass: Flood (flooded paddy test), 13 to 15 days
In short: as §2

[12] = 62 g ai/ha, postemergence, 0 is no effect, 100 is complete control, 13 to 15 days
[13] = 31 g ai/ha, 0 to 100 scale (0 no effect, 100 complete control)
[14] = 125 g ai/ha, scale 0 to 100 (0 no effect, 100 complete control)
[15] = 250 g ai/ha, scale 0 to 100 (0 no effect, 100 complete control), 13 to 15 days
[16] = 250 g ai/ha, flooded paddy test, visual rating on 0 to 100 scale (0 no effect, 100 complete control) after 13 to 15 days
[17] = 62 g ai/ha, scale of 0 to 100 where 0 is no effect and 100 is complete control
[18] = 125 g ai/ha, scale 0 to 100, 0 is no effect, 100 is complete control
[19] = Flood, 31 g ai/ha, scale 0 to 100 (0 no effect, 100 complete control)

CCCn1c(-c2cccc(C(F)(F)F)c2)ncc(C(=O)C2=C(O)CCCC2=O)c1=O [Compound 155]
Morningglory plant response rating (0 to 100 scale) [1, 12]: 85
Plant response rating, Morningglory [1, 13]: 55
Plant response rating, Morningglory [1, 14]: 100
Plant response rating, Morningglory [1, 15]: 100
Crabgrass, Large plant response rating (0 to 100 scale) [2, 12]: 75
Plant response rating, Crabgrass, Large [2, 13]: 60
Plant response rating, Crabgrass, Large [2, 14]: 80
Plant response rating, Crabgrass, Large [2, 15]: 90
Cocklebur plant response rating (0 to 100 scale) [3, 12]: 55
Plant response rating, Cocklebur [3, 13]: 15
Plant response rating, Cocklebur [3, 14]: 98
Plant response rating, Cocklebur [3, 15]: 100
Foxtail, Green plant response rating (0 to 100 scale) [4, 12]: 50
Plant response rating, Foxtail, Green [4, 13]: 25
Plant response rating, Foxtail, Green [4, 14]: 80
Plant response rating, Foxtail, Green [4, 15]: 80
Oat, Wild plant response rating (0 to 100 scale) (wild oat (Avena fatua); [12]): 40
Plant response rating, Oat, Wild (wild oat (Avena fatua); [13]): 10
Plant response rating, Oat, Wild (wild oat (Avena fatua); [14]): 60
Plant response rating, Oat, Wild (wild oat (Avena fatua); [15]): 70
Bermudagrass plant response rating (0 to 100 scale) [5, 12]: 98
Plant response rating, Bermudagrass [5, 13]: 85
Plant response rating, Bermudagrass [5, 14]: 98
Plant response rating, Bermudagrass [5, 15]: 100
Nutsedge, Yellow plant response rating (0 to 100 scale) [6, 12]: 45
Plant response rating, Nutsedge, Yellow [6, 13]: 20
Plant response rating, Nutsedge, Yellow [6, 14]: 70
Plant response rating, Nutsedge, Yellow [6, 15]: 75
Goosegrass plant response rating (0 to 100 scale) [7, 12]: 80
Plant response rating, Goosegrass [7, 13]: 65
Plant response rating, Goosegrass [7, 14]: 85
Plant response rating, Goosegrass [7, 15]: 98
Lambsquarters plant response rating (0 to 100 scale) [8, 12]: 100
Plant response rating, Lambsquarters [8, 13]: 98
Plant response rating, Lambsquarters [8, 14]: 100
Plant response rating, Lambsquarters [8, 15]: 100
Wheat plant response rating (0 to 100 scale) [9, 12]: 30
Plant response rating, Wheat [9, 13]: 15
Plant response rating, Wheat [9, 14]: 40
Plant response rating, Wheat [9, 15]: 70
Plant response rating, Flood, Sedge, Umbrella [10, 16]: 100
Plant response rating, Sedge, Umbrella [10, 17]: 60
Plant response rating, Sedge, Umbrella [10, 18]: 85
Sedge, Umbrella plant response rating [10, 19]: 60
Plant response rating, Flood, Barnyardgrass [11, 16]: 45
Plant response rating, Barnyardgrass [11, 17]: 0
Plant response rating, Barnyardgrass [11, 18]: 20
Barnyardgrass plant response rating [11, 19]: 0
